Laboratory results from PubChem BioAssay (NCI).
Converted amounts (≈) assume the structure as drawn.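 Results reflect a 48-hour exposure of cells in 96-well plates to compound at five concentrations. GI50: concentration for 50% inhibition of growth. At the TGI there is no net growth.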

Tests used:
P388/ADR leukemia = assay: NCI tumour cell line growth inhibition, 48 h
SN12K1 renal = assay: NCI tumour cell line growth inhibition, 48 h

CSc1ccc(/C=C2\CNC/C(=C\c3ccc(SC)cc3)C2=O)cc1
GI50 (P388/ADR leukemia): 150 µg/mL (≈ 408 µM) | TGI (P388/ADR leukemia): 150 µg/mL (≈ 408 µM) | GI50 (SN12K1 renal): 15.5 µg/mL (≈ 42.1 µM) | TGI (SN12K1 renal): 103 µg/mL (≈ 280 µM)
